In the supplement of paper PMC10307832:

Key:
Assay in all cases: relative viability (nuclei count vs DMSO), 5 days (fraction); higher = more cells survive
201T = system: 201T
Procedure, shortened: (§1)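 One day after seeding in 1536-well plates, lung cancer cell lines were dosed by pin tool. Dosing was either single-drug or a fixed anchor-drug dose plus five library-drug doses (not always all listed) in √10 steps. After 5 days, nuclei were stained in one fix-and-stain step and counted on 4× images, and relative viability is the nuclei count of treated wells over that of vehicle wells, given as the median of duplicate plates.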

LCLC-97TM1 = system: LCLC-97TM1
Procedure, shortened: as §1

NCI-H650 = system: NCI-H650
Procedure, shortened: as §1

A-427 = system: A-427
Procedure, shortened: as §1

NCI-H460 = system: NCI-H460
Procedure, shortened: as §1

NCI-H727 = system: NCI-H727
Procedure, shortened: as §1

NCI-H2023 = system: NCI-H2023
Procedure, shortened: as §1

BEN = system: BEN
Procedure, shortened: as §1

NCI-H661 = system: NCI-H661
Procedure, shortened: as §1

NCI-H1651 = system: NCI-H1651
Procedure, shortened: as §1

PC-3 [JPC-3] = system: PC-3 [JPC-3]
Procedure, shortened: as §1

NCI-H596 = system: NCI-H596
Procedure, shortened: as §1

NCI-H1944 = system: NCI-H1944
Procedure, shortened: as §1

NCI-H520 = system: NCI-H520
Procedure, shortened: as §1

H3255 = system: H3255
Procedure, shortened: as §1

LC-2-ad = system: LC-2-ad
Procedure, shortened: as §1

NCI-H2087 = system: NCI-H2087
Procedure, shortened: as §1

CAL-12T = system: CAL-12T
Procedure, shortened: as §1

ABC-1 = system: ABC-1
Procedure, shortened: as §1

NCI-H1915 = system: NCI-H1915
Procedure, shortened: as §1

NCI-H441 = system: NCI-H441
Procedure, shortened: as §1

Compound `COc1cc2nccc(Oc3ccc(NC(=O)Nc4cc(C)on4)c(Cl)c3)c2cc1OC` [Tivozanib] + Cc1nc(NC(=O)N2CCC[C@H]2C(N)=O)sc1-c1ccnc(C(C)(C)C(F)(F)F)c1 [Alpelisib] (partner 2 µM) has a relative viability (201T; first compound 0.005 µM) of 0.993, a relative viability (201T; first compound 0.01581 µM) of 1 and a relative viability (201T; first compound 0.05 µM) of 1.05. The relative viability (201T; first compound 0.1581 µM) was 1.02, the relative viability (201T; first compound 0.5 µM) was 1.08 and the relative viability (LCLC-97TM1; first compound 0.005 µM) was 0.191. It also gave a relative viability (LCLC-97TM1; first compound 0.01581 µM) of 0.206, a relative viability (LCLC-97TM1; first compound 0.1581 µM) of 0.237 and a relative viability (LCLC-97TM1; first compound 0.5 µM) of 0.247. It also gave a relative viability (NCI-H650; first compound 0.005 µM) of 1.06, a relative viability (NCI-H650; first compound 0.01581 µM) of 1.13 and a relative viability (NCI-H650; first compound 0.05 µM) of 1.1. The relative viability (NCI-H650; first compound 0.1581 µM) was 1.02, the relative viability (NCI-H650; first compound 0.5 µM) was 0.967 and the relative viability (A-427; first compound 0.005 µM) was 1.05. The relative viability (A-427; first compound 0.01581 µM) was 1.1, the relative viability (A-427; first compound 0.05 µM) was 1.12 and the relative viability (A-427; first compound 0.1581 µM) was 0.925. The relative viability (A-427; first compound 0.5 µM) was 1.06, the relative viability (NCI-H460; first compound 0.005 µM) was 0.483 and the relative viability (NCI-H460; first compound 0.01581 µM) was 0.422. It also gave a relative viability (NCI-H460; first compound 0.05 µM) of 0.454, a relative viability (NCI-H460; first compound 0.1581 µM) of 0.609 and a relative viability (NCI-H460; first compound 0.5 µM) of 0.543. It also gave a relative viability (NCI-H727; first compound 0.005 µM) of 0.505, a relative viability (NCI-H727; first compound 0.01581 µM) of 0.501 and a relative viability (NCI-H727; first compound 0.05 µM) of 0.675. It also gave a relative viability (NCI-H727; first compound 0.5 µM) of 0.615, a relative viability (NCI-H2023; first compound 0.005 µM) of 0.553 and a relative viability (NCI-H2023; first compound 0.01581 µM) of 0.578. For the same compound, the relative viability (NCI-H2023; first compound 0.05 µM) was 0.634, the relative viability (NCI-H2023; first compound 0.1581 µM) was 0.589 and the relative viability (NCI-H2023; first compound 0.5 µM) was 0.61. For the same compound, the relative viability (BEN; first compound 0.005 µM) was 0.991, the relative viability (BEN; first compound 0.01581 µM) was 1.04 and the relative viability (BEN; first compound 0.05 µM) was 1.03. For the same compound, the relative viability (BEN; first compound 0.5 µM) was 1.05, the relative viability (NCI-H661; first compound 0.005 µM) was 0.52 and the relative viability (NCI-H661; first compound 0.01581 µM) was 0.713. It also gave a relative viability (NCI-H661; first compound 0.05 µM) of 0.609, a relative viability (NCI-H661; first compound 0.1581 µM) of 0.302 and a relative viability (NCI-H661; first compound 0.5 µM) of 0.525. The relative viability (NCI-H1651; first compound 0.005 µM) was 0.985, the relative viability (NCI-H1651; first compound 0.01581 µM) was 0.842 and the relative viability (NCI-H1651; first compound 0.05 µM) was 0.781. For the same compound, the relative viability (NCI-H1651; first compound 0.1581 µM) was 0.879, the relative viability (NCI-H1651; first compound 0.5 µM) was 0.889 and the relative viability (PC-3 [JPC-3]; first compound 0.005 µM) was 0.988. It also gave a relative viability (PC-3 [JPC-3]; first compound 0.01581 µM) of 1.11, a relative viability (PC-3 [JPC-3]; first compound 0.05 µM) of 1.15 and a relative viability (PC-3 [JPC-3]; first compound 0.1581 µM) of 0.957. The relative viability (PC-3 [JPC-3]; first compound 0.5 µM) was 0.997, the relative viability (NCI-H596; first compound 0.005 µM) was 0.462 and the relative viability (NCI-H596; first compound 0.01581 µM) was 0.464. It also gave a relative viability (NCI-H596; first compound 0.05 µM) of 0.544, a relative viability (NCI-H596; first compound 0.1581 µM) of 0.47 and a relative viability (NCI-H596; first compound 0.5 µM) of 0.595. The relative viability (NCI-H1944; first compound 0.005 µM) was 0.889, the relative viability (NCI-H1944; first compound 0.01581 µM) was 0.902 and the relative viability (NCI-H1944; first compound 0.05 µM) was 0.885. The relative viability (NCI-H1944; first compound 0.1581 µM) was 0.733, the relative viability (NCI-H1944; first compound 0.5 µM) was 0.912 and the relative viability (NCI-H520; first compound 0.005 µM) was 0.773. The relative viability (NCI-H520; first compound 0.01581 µM) was 0.847, the relative viability (NCI-H520; first compound 0.05 µM) was 1.02 and the relative viability (NCI-H520; first compound 0.1581 µM) was 0.74. For the same compound, the relative viability (NCI-H520; first compound 0.5 µM) was 0.714, the relative viability (H3255; first compound 0.005 µM) was 0.727 and the relative viability (H3255; first compound 0.01581 µM) was 0.716. For the same compound, the relative viability (H3255; first compound 0.05 µM) was 0.684, the relative viability (H3255; first compound 0.1581 µM) was 0.689 and the relative viability (H3255; first compound 0.5 µM) was 0.615. The relative viability (LC-2-ad; first compound 0.005 µM) was 0.902, the relative viability (LC-2-ad; first compound 0.01581 µM) was 0.809 and the relative viability (LC-2-ad; first compound 0.05 µM) was 0.8. The relative viability (LC-2-ad; first compound 0.1581 µM) was 0.629, the relative viability (LC-2-ad; first compound 0.5 µM) was 0.654 and the relative viability (NCI-H2087; first compound 0.005 µM) was 1.04. For the same compound, the relative viability (NCI-H2087; first compound 0.01581 µM) was 1.03, the relative viability (NCI-H2087; first compound 0.05 µM) was 1.18 and the relative viability (NCI-H2087; first compound 0.1581 µM) was 0.886. The relative viability (NCI-H2087; first compound 0.5 µM) was 1.04, the relative viability (CAL-12T; first compound 0.005 µM) was 1.11 and the relative viability (CAL-12T; first compound 0.01581 µM) was 1.07. The relative viability (CAL-12T; first compound 0.05 µM) was 1.31, the relative viability (CAL-12T; first compound 0.5 µM) was 1.32 and the relative viability (ABC-1; first compound 0.005 µM) was 0.971. For the same compound, the relative viability (ABC-1; first compound 0.01581 µM) was 0.99, the relative viability (ABC-1; first compound 0.05 µM) was 0.917 and the relative viability (ABC-1; first compound 0.1581 µM) was 1.27. For the same compound, the relative viability (ABC-1; first compound 0.5 µM) was 1.08, the relative viability (NCI-H1915; first compound 0.005 µM) was 1.08 and the relative viability (NCI-H1915; first compound 0.01581 µM) was 1.04. For the same compound, the relative viability (NCI-H1915; first compound 0.05 µM) was 1.11, the relative viability (NCI-H1915; first compound 0.1581 µM) was 0.99 and the relative viability (NCI-H1915; first compound 0.5 µM) was 0.961. The relative viability (NCI-H441; first compound 0.005 µM) was 0.711, the relative viability (NCI-H441; first compound 0.01581 µM) was 0.452 and the relative viability (NCI-H441; first compound 0.05 µM) was 0.57. For the same compound, the relative viability (NCI-H441; first compound 0.1581 µM) was 0.632 and the relative viability (NCI-H441; first compound 0.5 µM) was 0.56.
